Assay results: US20240390340A1 (INCYTE CORPORATION, priority 2023, published 2024)

How the values were obtained:
[1] = target: KRAS G12D (Homo sapiens, UniProt P01116, G12D); test: GDP-GTP exchange assay (bodipy-GDP/GppNHp, SOS1), KRAS G12D; assay type: biochemical; settings: bodipy-loaded KRAS G12D 2.5 nM, 4 h pre-incubation; value for the most potent isomer quoted for certain compounds; read-out: G12D (KRAS G12D exchange assay IC50)
[2] = target: KRAS G12V (Homo sapiens, UniProt P01116, G12V); test: GDP-GTP exchange assay (bodipy-GDP/GppNHp, SOS1), KRAS G12V; assay type: biochemical; settings: KRAS G12V mutant; value for the most potent isomer quoted for certain compounds; read-out: G12V (KRAS G12V exchange assay IC50)
KRAS G12V, sequence (P01116 1-188 isoform P01116-2 G12V): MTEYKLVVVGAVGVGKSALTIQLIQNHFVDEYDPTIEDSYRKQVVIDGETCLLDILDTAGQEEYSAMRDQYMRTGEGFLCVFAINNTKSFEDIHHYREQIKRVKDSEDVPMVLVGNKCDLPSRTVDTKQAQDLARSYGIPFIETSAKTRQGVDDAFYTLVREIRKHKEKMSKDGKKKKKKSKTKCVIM

KRAS G12D, sequence (P01116 1-188 isoform P01116-2 G12D): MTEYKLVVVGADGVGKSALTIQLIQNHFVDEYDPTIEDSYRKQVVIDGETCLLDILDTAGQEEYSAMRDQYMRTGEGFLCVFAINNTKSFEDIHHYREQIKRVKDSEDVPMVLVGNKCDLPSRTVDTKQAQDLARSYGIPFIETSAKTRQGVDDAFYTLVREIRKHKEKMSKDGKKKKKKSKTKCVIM

Cc1nc2c(F)c(-c3cccc(Cl)c3Cl)c(CCC#N)cc2c2c1cc([C@H]1C[C@H](Oc3cccc(Cl)c3)CN1C(=O)C1CC1)n2[C@H]1[C@H]2CN[C@@H]1C2 [Example 161]
IC50 [1]: ≤ 100 nM | IC50 [2]: ≤ 100 nM

Cc1cn([C@H]2C[C@H](c3cc4c(C)nc5c(F)c(-c6cccc(Cl)c6Cl)c(CCC#N)cc5c4n3[C@H]3[C@H]4CN[C@@H]3C4)N(C(=O)C3CC3)C2)nn1 [Example 343]
IC50 [1]: ≤ 100 nM | IC50 [2]: ≤ 100 nM

Cc1nc2c(F)c(-c3cccc(Cl)c3Cl)c(CCC#N)cc2c2c1cc([C@H]1C[C@H](Oc3cccc(C(F)(F)F)n3)CN1C(=O)C1CC1)n2[C@H]1C2CNC1C2 (some centres unmarked) [Example 142]
IC50 [1]: ≤ 100 nM | IC50 [2]: ≤ 100 nM

Cc1cccc(O[C@H]2C[C@H](c3cc4c(C)nc5c(F)c(-c6cccc(Cl)c6Cl)c(CCC#N)cc5c4n3[C@H]3C4CNC3C4)N(C(=O)C3CC3)C2)c1 (some centres unmarked) [Example 134]
IC50 [1]: ≤ 100 nM | IC50 [2]: ≤ 100 nM

COc1cccc(CO[C@H]2C[C@H](c3cc4c(C)nc5c(F)c(-c6cccc(Cl)c6Cl)c(CCC#N)cc5c4n3[C@H]3[C@H]4CN[C@@H]3C4)N(C(=O)C3CC3)C2)c1F [Example 154]
IC50 [1]: ≤ 100 nM | IC50 [2]: ≤ 100 nM

Cc1nc2c(F)c(-c3cccc(Cl)c3Cl)c(CCC#N)cc2c2c1cc([C@H]1C[C@H](OC(=O)c3ccccc3)CN1C(=O)C1CC1)n2[C@H]1[C@H]2CN[C@@H]1C2 [Example 87]
IC50 [1]: ≤ 100 nM | IC50 [2]: ≤ 100 nM

Cc1nc2c(F)c(-c3cccc(Cl)c3Cl)c(CCC#N)cc2c2c1cc([C@H]1C[C@H](Oc3cccnn3)CN1C(=O)C1CC1)n2[C@H]1[C@H]2CN[C@@H]1C2 [Example 138]
IC50 [1]: ≤ 100 nM | IC50 [2]: ≤ 100 nM

Cc1nc2c(F)c(-c3cccc(Cl)c3Cl)c(CCC#N)cc2c2c1cc([C@H]1C[C@H](OCc3cccc(C(=O)N(C)C)c3)CN1C(=O)C1CC1)n2[C@H]1[C@H]2CN[C@@H]1C2 [Example 187]
IC50 [1]: ≤ 100 nM | IC50 [2]: ≤ 100 nM

Cc1nc2c(F)c(-c3cccc(Cl)c3Cl)c(CCC#N)cc2c2c1cc([C@H]1C[C@H](Oc3ccnn3C)CN1C(=O)C1CC1)n2[C@H]1[C@H]2CN[C@@H]1C2 [Example 175]
IC50 [1]: ≤ 100 nM | IC50 [2]: ≤ 100 nM

[2H]C([2H])(O[C@H]1C[C@H](c2cc3c(C)nc4c(F)c(-c5cccc(Cl)c5Cl)c(CCC#N)cc4c3n2[C@H]2[C@H]3CN[C@@H]2C3)N(C(=O)C2CC2)[C@@H]1C)c1cc(C)sn1 [Example 241]
IC50 [1]: ≤ 100 nM | IC50 [2]: ≤ 100 nM

COc1cc(O[C@H]2C[C@H](c3cc4c(C)nc5c(F)c(-c6cccc(Cl)c6Cl)c(CCC#N)cc5c4n3[C@H]3[C@H]4CN[C@@H]3C4)N(C(=O)C3CC3)C2)ccc1C#N [Example 287]
IC50 [1]: ≤ 100 nM | IC50 [2]: ≤ 100 nM

CC(O)c1nc2c(F)c(-c3cccc(Cl)c3Cl)c(CCC#N)cc2c2c1cc([C@H]1C[C@H](OCc3c(F)cccc3F)CN1C(=O)C1(C)CC1)n2[C@H]1[C@H]2CN[C@@H]1C2 (some centres unmarked) [Example 185]
IC50 [1]: ≤ 100 nM | IC50 [2]: ≤ 100 nM

COc1ccccc1O[C@H]1C[C@H](c2cc3c(C)nc4c(F)c(-c5cccc(Cl)c5Cl)c(CCC#N)cc4c3n2[C@H]2[C@H]3CN[C@@H]2C3)N(C(=O)C2CC2)C1 [Example 250]
IC50 [1]: ≤ 100 nM | IC50 [2]: ≤ 100 nM

Cc1nc2c(F)c(-c3cccc(Cl)c3Cl)c(CCC#N)cc2c2c1cc([C@H]1C[C@H](Oc3cc(Cl)cc(C#N)c3)CN1C(=O)C1CC1)n2[C@H]1[C@H]2CN[C@@H]1C2 [Example 191]
IC50 [1]: ≤ 100 nM | IC50 [2]: ≤ 100 nM

COC1CN(c2ccnc(O[C@H]3C[C@H](c4cc5c(C)nc6c(F)c(-c7cccc(Cl)c7Cl)c(CCC#N)cc6c5n4[C@H]4[C@H]5CN[C@@H]4C5)N(C(=O)C4CC4)C3)c2)C1 [Example 367]
IC50 [1]: ≤ 100 nM | IC50 [2]: ≤ 100 nM

Cc1nnn([C@H]2C[C@H](c3cc4c(C)nc5c(F)c(-c6cccc(Cl)c6Cl)c(CCC#N)cc5c4n3[C@H]3[C@H]4CN[C@@H]3C4)N(C(=O)C3CC3)C2)c1CO [Example 327]
IC50 [1]: ≤ 100 nM | IC50 [2]: ≤ 100 nM

Cc1ccc(O[C@H]2C[C@H](c3cc4c(C)nc5c(F)c(-c6cccc(Cl)c6Cl)c(CCC#N)cc5c4n3[C@H]3[C@H]4CN[C@@H]3C4)N(C(=O)C3CC3)C2)cc1 [Example 118]
IC50 [1]: ≤ 100 nM | IC50 [2]: ≤ 100 nM

Cc1ccncc1O[C@H]1C[C@H](c2cc3c(C)nc4c(F)c(-c5cccc(Cl)c5Cl)c(CCC#N)cc4c3n2[C@H]2[C@H]3CN[C@@H]2C3)N(C(=O)C2CC2)C1 [Example 130]
IC50 [1]: ≤ 100 nM | IC50 [2]: ≤ 100 nM

N#CCCc1cc2c(nc(C3=CCS(=O)(=O)CC3)c3cc([C@H]4C[C@H](OCc5c(F)cccc5F)CN4C(=O)C4CC4)n([C@H]4[C@H]5CN[C@@H]4C5)c32)c(F)c1-c1cccc(Cl)c1Cl [Example 240]
IC50 [1]: 100 to 1000 nM | IC50 [2]: ≤ 100 nM

Cc1nc2c(F)c(-c3cccc(Cl)c3Cl)c(CCC#N)cc2c2c1cc([C@H]1C[C@H](Oc3cnn4ccccc34)CN1C(=O)C1CC1)n2[C@H]1[C@H]2CN[C@@H]1C2 [Example 194]
IC50 [1]: ≤ 100 nM | IC50 [2]: ≤ 100 nM

Cc1cc(C(C)O[C@H]2C[C@H](c3cc4c(C(C)O)nc5c(F)c(-c6cccc(Cl)c6Cl)c(CCC#N)cc5c4n3[C@H]3[C@H]4CN[C@@H]3C4)N(C(=O)C3CC3)C2)ns1 (some centres unmarked) [Example 335]
IC50 [1]: ≤ 100 nM | IC50 [2]: ≤ 100 nM

Cc1ccnc(O[C@H]2C[C@H](c3cc4c(C)nc5c(F)c(-c6cccc(Cl)c6Cl)c(CCC#N)cc5c4n3[C@H]3[C@H]4CN[C@@H]3C4)N(C(=O)C3CC3)C2)c1 [Example 422]
IC50 [1]: ≤ 100 nM | IC50 [2]: ≤ 100 nM

Cc1nc2c(F)c(-c3cccc(Cl)c3Cl)c(CCC#N)cc2c2c1cc([C@H]1C[C@H](Oc3cnn(CC(F)F)c3C)CN1C(=O)C1CC1)n2[C@H]1[C@H]2CN[C@@H]1C2 [Example 410]
IC50 [1]: ≤ 100 nM | IC50 [2]: ≤ 100 nM

Cc1nc2c(F)c(-c3cccc(Cl)c3Cl)c(CCC#N)cc2c2c1cc([C@H]1C[C@H](Oc3ccn(CC(F)(F)F)n3)CN1C(=O)C1CC1)n2[C@H]1[C@H]2CN[C@@H]1C2 [Example 411]
IC50 [1]: ≤ 100 nM | IC50 [2]: ≤ 100 nM

Cc1nc2c(F)c(-c3cccc(Cl)c3Cl)c(CCC#N)cc2c2c1cc([C@H]1C[C@H](n3cc(CCc4ccccc4)nn3)CN1C(=O)C1CC1)n2[C@H]1[C@H]2CN[C@@H]1C2 [Example 389]
IC50 [1]: ≤ 100 nM | IC50 [2]: ≤ 100 nM

Cc1nc2c(F)c(-c3cccc(Cl)c3Cl)c(CCC#N)cc2c2c1cc([C@H]1C[C@H](n3nnc(-c4cccc(OC(F)(F)F)c4)n3)CN1C(=O)C1CC1)n2[C@H]1[C@H]2CN[C@@H]1C2 [Example 436]
IC50 [1]: ≤ 100 nM | IC50 [2]: 100 to 1000 nM

Cc1nc2c(F)c(-c3cccc(Cl)c3Cl)c(CCC#N)cc2c2c1cc([C@H]1C[C@H](Oc3cccc4c3cnn4C)CN1C(=O)C1CC1)n2[C@H]1[C@H]2CN[C@@H]1C2 [Example 133]
IC50 [1]: ≤ 100 nM | IC50 [2]: ≤ 100 nM

Cc1csnc1C(C)O[C@H]1C[C@H](c2cc3c(C)nc4c(F)c(-c5cccc(Cl)c5Cl)c(CCC#N)cc4c3n2[C@H]2[C@H]3CN[C@@H]2C3)N(C(=O)C2CC2)[C@@H]1C (some centres unmarked) [Example 254]
IC50 [1]: ≤ 100 nM | IC50 [2]: ≤ 100 nM

Cc1nc2c(F)c(-c3cccc(Cl)c3Cl)c(CCC#N)cc2c2c1cc([C@H]1C[C@H](OCc3cccnc3C(F)(F)F)CN1C(=O)C1CC1)n2[C@H]1[C@H]2CN[C@@H]1C2 [Example 268]
IC50 [1]: ≤ 100 nM | IC50 [2]: ≤ 100 nM

[2H]C([2H])(O[C@H]1C[C@H](c2cc3c(C(C)O)nc4c(F)c(-c5cccc(Cl)c5Cl)c(CCC#N)cc4c3n2[C@H]2[C@H]3CN[C@@H]2C3)N(C(=O)C2CC2)C1)c1nscc1C (some centres unmarked) [Example 237]
IC50 [1]: ≤ 100 nM | IC50 [2]: ≤ 100 nM

Cc1nc2c(F)c(-c3cccc(Cl)c3Cl)c(CCC#N)cc2c2c1cc([C@H]1C[C@H](n3cnc(C4CCC4)n3)CN1C(=O)C1CC1)n2[C@H]1[C@H]2CN[C@@H]1C2 [Example 347]
IC50 [1]: ≤ 100 nM | IC50 [2]: ≤ 100 nM

Cc1nc2c(F)c(-c3cccc(Cl)c3Cl)c(CCC#N)cc2c2c1cc([C@H]1C[C@H](Oc3ccc(F)cc3)CN1C(=O)C1CC1)n2[C@H]1[C@H]2CN[C@@H]1C2 [Example 120]
IC50 [1]: ≤ 100 nM | IC50 [2]: ≤ 100 nM

Cc1nc2c(F)c(-c3cccc(Cl)c3Cl)c(CCC#N)cc2c2c1cc([C@H]1C[C@H](Oc3ccnc(C#N)c3)CN1C(=O)C1CC1)n2[C@H]1[C@H]2CN[C@@H]1C2 [Example 198]
IC50 [1]: ≤ 100 nM | IC50 [2]: ≤ 100 nM

Cc1cnn([C@H]2C[C@H](c3cc4c(C)nc5c(F)c(-c6cccc(Cl)c6Cl)c(CCC#N)cc5c4n3[C@H]3[C@H]4CN[C@@H]3C4)N(C(=O)C3CC3)C2)c1 [Example 279]
IC50 [1]: ≤ 100 nM | IC50 [2]: ≤ 100 nM

Cc1ncccc1O[C@H]1C[C@H](c2cc3c(C)nc4c(F)c(-c5cccc(Cl)c5Cl)c(CCC#N)cc4c3n2[C@H]2[C@H]3CN[C@@H]2C3)N(C(=O)C2CC2)C1 [Example 129]
IC50 [1]: ≤ 100 nM | IC50 [2]: ≤ 100 nM

Cc1nc2c(F)c(-c3cccc(Cl)c3Cl)c(CCC#N)cc2c2c1cc([C@H]1C[C@H](OCc3c(F)cccc3F)CN1C(=O)N(C)c1ccccc1)n2[C@H]1[C@H]2CN[C@@H]1C2 [Example 197]
IC50 [1]: 100 to 1000 nM | IC50 [2]: ≤ 100 nM

Cc1nc2c(F)c(-c3cccc(Cl)c3Cl)c(CCC#N)cc2c2c1cc([C@H]1C[C@H](OCc3cncs3)CN1C(=O)C1CC1)n2[C@H]1[C@H]2CN[C@@H]1C2 [Example 97]
IC50 [1]: ≤ 100 nM | IC50 [2]: ≤ 100 nM

Cc1nc2c(F)c(-c3cccc(Cl)c3Cl)c(CCC#N)cc2c2c1cc([C@H]1C[C@H](OCc3cccc(S(C)(=O)=O)c3)CN1C(=O)C1CC1)n2[C@H]1[C@H]2CN[C@@H]1C2 [Example 164]
IC50 [1]: ≤ 100 nM | IC50 [2]: ≤ 100 nM

Cc1nc2c(F)c(-c3cccc(Cl)c3Cl)c(CCC#N)cc2c2c1cc([C@H]1C[C@H](OCc3ccn(C(F)(F)F)n3)CN1C(=O)C1(C)CC1)n2[C@H]1[C@H]2CN[C@@H]1C2 [Example 310]
IC50 [1]: ≤ 100 nM | IC50 [2]: ≤ 100 nM

Cc1csnc1C(C)O[C@H]1C[C@H](c2cc3c(C(C)O)nc4c(F)c(-c5cccc(Cl)c5Cl)c(CCC#N)cc4c3n2[C@H]2[C@H]3CN[C@@H]2C3)N(C(=O)C2CC2)C1 (some centres unmarked) [Example 334]
IC50 [1]: ≤ 100 nM | IC50 [2]: ≤ 100 nM
